Source: publication PMC6545111 (Journal of medicinal chemistry, 2018)
One block for each molecule: values may come before it.

How the values were obtained:
BRD4 BD1 protein [1] = target: T1, BRD4 BD1 protein (Homo sapiens, UniProt O60885); assay: biochemical
[2] = tested on: MV4;11, MOLM-13 and RS4;11 acute leukemia cell lines; assay: Cell growth inhibition, statements covering the three leukemia cell lines; format: cell-based, human
[3] = tested on: c-Myc protein in RS4;11 cells; assay: Western blotting of c-Myc in RS4; format: cell-based, human; settings: RS4;11 cells, 3 h treatment
[4] = tested on: cleaved PARP and cleaved Caspase 3 in RS4;11 cells; assay: Western blotting of cleaved PARP / caspase 3 in RS4; format: cell-based, human; settings: RS4;11 cells; for apoptosis induction revealed by cleavage of PARP: 1 and 10 nM, 24 h treatment
[5] = tested on: BRD2, BRD3 and BRD4 proteins in RS4;11 cells; settings: for lowest concentration very effective in inducing degradation of BET proteins: 3 h treatment
BRD4 BD1 protein [6] = target: T1, BRD4 BD1 protein; settings: for times less potent than 3 in binding to BRD4 BD1: vs compound 3
MOLM-13 cells = assay: Apoptosis by flow cytometry; format: cell-based, human; settings: MOLM-13, 1–10 μM
MV4;11 cells = assay: Apoptosis by flow cytometry; format: cell-based, human; settings: MV4;11, 1–10 μM
RS4;11 cells = assay: Apoptosis by flow cytometry; format: cell-based, human; settings: RS4;11, 1–10 μM

IC50 (BRD4 BD1 protein [1]): 4400 ± 700 nM
Ki (BRD4 BD1 protein [1]): 1500 ± 200 nM
Molecule: Cc1cc2c(s1)-n1c(C)nnc1COC2 [Compound 2, 2,9-dimethyl-4H,6H-thieno[2,3-e][1,2,4]triazolo[3,4-c][1,4]oxazepine]

Molecule: 4-((4-(4-((3-Benzyl-9-methyl-4H,6H-thieno[2,3-e][1,2,4]triazolo[3,4-c][1,4]oxazepin-2yl)ethynyl)-1H-pyrazol-1-yl)butyl)amino)-2-(2,6-dioxopiperidin-3-yl)isoindoline-1,3-dione [Compound 30]
times more potent than 29 in cell growth inhibition ([2]; each of the three leukemia cell lines): 2–3 times
lowest concentration reducing the levels of c-Myc protein [3]: ≤ 0.1 nM
apoptosis induction revealed by cleavage of PARP [4]: potently induce apoptosis
lowest concentration very effective in inducing degradation of BET proteins [5]: ≤ 0.1 nM

Molecule: 4-(4-((3-Benzyl-9-methyl-4H,6H-thieno[2,3-e][1,2,4]triazolo[3,4-c][1,4]oxazepin-2-yl)ethynyl)-1H-pyrazol-1-yl)-2-(2,6-dioxopiperidin-3-yl)isoindoline-1,3-dione [Compound 26]
cell growth inhibitory activity ([2]; concentrations up to 1,000 nM, any of the three leukemia cell lines): failed to show significant cell growth inhibitory activity
degradation of BRD2, BRD3 and BRD4 proteins ([5]; up to 1,000 nM, 24 h treatment): failed to induce degradation

Molecule: 4-((3-(4-((3-Benzyl-9-methyl-4H,6H-thieno[2,3-e][1,2,4]triazolo[3,4-c][1,4]oxazepin-2yl)ethynyl)-1H-pyrazol-1-yl)propyl)amino)-2-(2,6-dioxopiperidin-3-yl)isoindoline-1,3-dione [Compound 29]
times more potent than 28 in cell growth inhibition ([2]; three cell lines): 3–10 times
apoptosis induction revealed by cleavage of PARP [4]: potently induce apoptosis
lowest concentration very effective in inducing degradation of BET proteins [5]: ≤ 0.1 nM

times less potent than 3 in binding to BRD4 BD1 (BRD4 BD1 protein [6]): 25 times
Molecule: Cc1nnc2n1-c1scc(Cc3ccccc3)c1COC2 [Compound 4, 3-Benzyl-9-methyl-4H,6H-thieno[2,3-e][1,2,4]triazolo[3,4-c][1,4]oxazepine]

times less potent than 3 in binding to BRD4 BD1 (BRD4 BD1 protein [6]): > 50 times
Molecule: Cc1nnc2n1-c1sc(C3CCOCC3)c(Cc3ccccc3)c1COC2 [Compound 6, 3-Benzyl-9-methyl-2-(tetrahydro-2H-pyran-4-yl)-4H,6H-thieno[2,3-e][1,2,4]triazolo[3,4c][1,4]oxazepine]

Molecule: 4-((5-(4-((3-Benzyl-9-methyl-4H,6H-thieno[2,3-e][1,2,4]triazolo[3,4-c][1,4]oxazepin-2-yl)ethynyl)-1H-pyrazol-1-yl)pentyl)amino)-2-(2,6-dioxopiperidin-3-yl)isoindoline-1,3-dione [Compound 31]
lowest concentration reducing the levels of c-Myc protein [3]: ≤ 0.1 nM
apoptosis induction revealed by cleavage of PARP [4]: potently induce apoptosis
lowest concentration very effective in inducing degradation of BET proteins [5]: ≤ 0.1 nM

Molecule: 4-((2-(4-((3-Benzyl-9-methyl-4H,6H-thieno[2,3-e][1,2,4]triazolo[3,4-c][1,4]oxazepin-2-yl)ethynyl)-1H-pyrazol-1-yl)ethyl)amino)-2-(2,6-dioxopiperidin-3-yl)isoindoline-1,3-dione [Compound 28]
apoptosis induction revealed by cleavage of PARP [4]: potently induce apoptosis

Molecule: 4-(5-(4-((3-Benzyl-9-methyl-4H,6H-thieno[2,3-e][1,2,4]triazolo[3,4-c][1,4]oxazepin-2-yl)ethynyl)-1H-pyrazol-1-yl)pent-1-yn-1-yl)-2-(2,6-dioxopiperidin-3-yl)isoindoline-1,3-dione [Compound 36]
times less potent than 35 in cell growth inhibition ([2]; three leukemia cell lines): 10–100 times

times less potent than 3 in binding to BRD4 BD1 (BRD4 BD1 protein [6]): 6 times
times less potent than 8 in binding to BRD4 BD1 (BRD4 BD1 protein [6]; vs compound 8): 3 times
Molecule: Cc1nnc2n1-c1sc(C#N)c(Cc3ccccc3)c1COC2 [Compound 9, 3-Benzyl-9-methyl-4H,6H-thieno[2,3-e][1,2,4]triazolo[3,4-c][1,4]oxazepine-2-carbonitrile]

Molecule: Cc1nnc2n1-c1sc(C#Cc3cnn(C)c3)c(Cc3ccccc3)c1COC2 [Compound 22, 3-Benzyl-9-methyl-2-((1-methyl-1H-pyrazol-4-yl)ethynyl)-4H,6H-thieno[2,3-e][1,2,4]triazolo[3,4-c][1,4]oxazepine]
PARP cleavage ([4]; 10 μM, 24 h): only marginally
apoptosis induction (MOLM-13 cells): minimal to modest effect
apoptosis induction (MV4;11 cells): minimal to modest effect
apoptosis induction (RS4;11 cells): minimal to modest effect

Molecule: 4-((4-((3-Benzyl-9-methyl-4H,6H-thieno[2,3-e][1,2,4]triazolo[3,4-c][1,4]oxazepin-2-yl)ethynyl)-1H-pyrazol-1-yl)methoxy)-2-(2,6-dioxopiperidin-3-yl)isoindoline-1,3-dione [Compound 27]
degradation of BRD2 and BRD3 relative to BRD4 [5]: more effectively than the BRD4 protein
relative potency in inducing degradation of BET proteins [5]: much less potent than compounds 29, 30 and 31
lowest concentration very effective in inducing degradation of BRD2, BRD3 and BRD4 ([5]; time- and dose-dependent): ≤ 10 nM
